{
  "source": "patent US20240287108A1",
  "about": "“nSMASE2 INHIBITOR PRODRUGS WITH ENHANCED ORAL AND BRAIN EXPOSURES” (The Johns Hopkins University, priority 2021, published 2024)",
  "key": {"[1]": {"test_system": "IL-1β-induced release of GFP+ EVs into plasma", "assay": "EV release in vivo, IL-1β mouse model of acute brain injury", "conditions": "P18 3 and 10 mg/kg DPTIP equivalent PO 30 min before intrastriatal IL-1β; 4 h", "from_the_text": "(§1) We have previously reported that nSMase2 regulates the secretion of extracellular vesicles from astrocytes in response to a focal inflammatory brain lesion. Rojas et al., 2018. Striatal injection of IL-1β in mice expressing GFAP-EGFP in astroglia evokes the release of GFP-labelled EVs that rapidly enter into plasma and target multiple organ systems. Dickens et al., 2017. We used this mouse model to evaluate the ability of P18 to inhibit EV release by the inhibition of nSMase2 activity in vivo. […] Interleukin-1β-injected mice, orally pre-dosed with P18 (30 min prior) were euthanized 4-hours post-IL-1β injection. GFP labeled (GFP+) EVs were quantified in plasma and nSMase2 activity was measured in the brain striata.\nStriatal injections and EV measurements were performed as previously described by our group. Dickens et al., 2017; Mccluskey et al., 2008. […] Mice subjected to intrastriatal injection of IL-1β were also injected with the NSAID carprofen (rimadyl, 5 mg/kg. i.p.) and closely monitored during recovery; no adverse reactions were observed. […] Quantitation of Plasma EVs: Dynabeads M-450) Epoxy (Invitrogen) were coupled with anti-GFP antibody (Thermo Fisher) at a ratio of 200-μg antibody per 4×10^8 beads. […] The concentration of immunoprecipitated GFP+ EVs was quantified using ZetaView nanoparticle tracking analysis (Particle Metrix) and corresponding ZetaView software (8.05.14.SP7). […]"}, "nSMase2": {"target": "T1, nSMase2 (Mus musculus, UniProt Q9JJY3)", "T1 construct": "the striata dissected and analyzed for nSMase2 activity using a modification of previously published protocols; from tissue; host or cells: striata of GFAP-EGFP transgenic mice, homogenised and sonicated lysate", "T1 sequence (Q9JJY3 1-655)": "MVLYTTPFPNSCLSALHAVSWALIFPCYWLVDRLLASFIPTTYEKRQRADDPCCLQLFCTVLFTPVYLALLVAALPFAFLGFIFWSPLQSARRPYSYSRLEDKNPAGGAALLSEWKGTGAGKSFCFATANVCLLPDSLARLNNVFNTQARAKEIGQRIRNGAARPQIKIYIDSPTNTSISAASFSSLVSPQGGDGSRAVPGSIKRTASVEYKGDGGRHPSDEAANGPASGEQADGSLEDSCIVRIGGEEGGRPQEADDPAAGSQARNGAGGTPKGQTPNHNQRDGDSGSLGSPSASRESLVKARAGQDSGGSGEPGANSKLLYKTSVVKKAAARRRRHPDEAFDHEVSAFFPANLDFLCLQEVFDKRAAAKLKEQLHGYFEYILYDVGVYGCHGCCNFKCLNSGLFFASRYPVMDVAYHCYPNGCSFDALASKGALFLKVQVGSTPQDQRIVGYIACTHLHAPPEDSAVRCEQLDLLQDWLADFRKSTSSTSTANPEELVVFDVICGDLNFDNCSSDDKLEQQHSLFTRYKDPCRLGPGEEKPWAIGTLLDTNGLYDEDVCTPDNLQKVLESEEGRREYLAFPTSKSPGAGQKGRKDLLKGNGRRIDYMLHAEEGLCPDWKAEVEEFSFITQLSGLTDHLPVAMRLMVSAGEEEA", "assay": "nSMase2 activity in striata of IL-1β-injected mice", "format": "in vivo", "conditions": "P18 3 and 10 mg/kg DPTIP equivalent PO 30 min before intrastriatal IL-1β; 4 h", "from_the_text": "as §1\nRojas et al., 2018; Figuera-Losada et al., 2015. Briefly, mice striata were homogenized in ice-cold Tris-HCl buffer (0.1 M, pH 7.5) containing 250 mM sucrose, 10 mM EGTA (Research Products International, Prospect, IL), 100 μM sodium molybdate and protease inhibitors (Cell Signaling, Danvers, MA) using Biomasher II and then sonicated using Kontes' Micro Ultrasonic Cell Disrupter (three pulses of 15 s duration on ice with 30 s between pulses). […] At the end of the reaction period, the relative fluorescence units were measured at Ex 530 nm, Em 590 nm. […]"}},
  "note": "“Also recorded” adds a separate entry of the source.",
  "data": [
    {"smiles": "CCC1CC(N2CCCCC2)CC(CC)N1C(=O)Oc1c(OC)cc(-c2nc(-c3ccccc3)c(-c3cccs3)[nH]2)cc1OC", "note": "(centres unmarked) [Compound P18, 2,6-Dimethoxy-4-(5-phenyl-4-(thiophen-2-yl)-1H-imidazol-2-yl)phenyl 2′,6′-diethyl-[1,4′-bipiperidine]-1′-carboxylate]", "values": [
      {"measurement": "IL-1β-induced release of GFP+ EVs into plasma", "setting": "[1]", "result": "significantly inhibited IL-1β-induced EV release into plasma; also recorded: inhibited the release of brain derived GFP+ EVs into blood at both 3 and 10 mg/kg; also recorded: significant inhibition"},
      {"measurement": "nSMase2 activity in brain striata", "setting": "nSMase2", "result": "attenuated nSMase2 activity; also recorded: inhibition of brain nSMase2 activity; also recorded: reduced nSMase2 activity increased in response to IL-1β in a dose dependent manner; also recorded: significant inhibition of nSMase2 activity"}
    ]}
  ]
}
